# Legend:
# 23S rRNA (2555 loop) = assay: Antibiotic inhibition of crosslinking by s^4TCPm to 23S rRNA; format: binding, E. coli; conditions: antibiotics 0.1 mM (neomycin 0.01 mM, puromycin 1 mM); limiting [32P]-s^4TCPm
# Description: FIGS. 5A and 5B are graphs that indicate antibiotic inhibition of crosslinking by s^4TCPm to 23S rRNA (5A) and of peptidyl transferase activity of crosslinked complex (s^4TCPm-50S) (5B). Values were normalized to 1.0 for reactions where no antibiotics were included.
# (§1) Kinetic analysis of crosslinked ribosomal complex: Crosslinked 50S subunits were separated from 30S subunits, gene 32 mRNA, and deacylated tRNA^Phe on 5%-20% sucrose gradients in 10 mM Tris-Cl, pH 7.5, 30 mM NH4Cl, and 1 mM MgCl2, and spun in an SW41 rotor at 19,000 rpm for 16 hours. Excess sucrose was removed and the buffer exchanged to 20 mM Tris, pH 7.5, 100 mM NH4Cl, and 5 mM MgCl2 using Centricon 100 tubes spun at 2600 rpm in an SS34 rotor. Peptidyl transferase assays were done as follows: crosslinked 50S subunit complexes (0.5 μM) were incubated in standard fragment reaction conditions (50 mM Tris, pH 8.3, 0.4 M potassium acetate (KOAc), 60 mM MgCl2, and 33% MeOH) with CACCA-(N-Ac-Phe) (2 μM). Aliquots were removed from the reaction at the indicated times, rRNAs phenol extracted, digested with RNase T1, and the fragments resolved on 24% polyacrylamide/6 M urea gels. […] When incubated with ribosomes at these concentrations, these antibiotics protect specific positions in 16S and 23S rRNA from chemical modification. Antibiotic inhibition of crosslinking was performed using limiting [^32P]-s^4TCPm and a single time point (2 minutes) of exposure to various lengths of time (0, 5, 10, 20, or 40 minutes) to long-wave length (366 nm) UV light (in the linear range of the reaction) under standard conditions. Ribosomal RNAs were phenol extracted and analyzed on a 3.8% polyacrylamide—7 M urea gel. Antibiotic inhibition of PT activity was performed with the fragment P-site substrate, CACCA-(N-Ac-Phe), supplied at a concentration of 0.3 μM; a single linear time point of 4 minutes was used for analysis.
# While sparsomycin is known to stabilize P-site substrate binding, it also competes effectively for binding with puromycin in the A site. As sparsomycin is ineffective in the context of a covalently tethered puromycin substrate, but active in preventing the crosslinking of s^4TCPm, it seems likely that its mode of inhibition results primarily from its effect on A-site interactions. Puromycin had no effect on the peptidyl transferase activity of the crosslinked complex, consistent with the high effective concentration of the s^4TCPm substrate covalently bound in the A site. These effects of the various antibiotics on the activity of the 50S subunit-s^4TCPm complex provide further evidence that the synthetic substrate, s^4TCPm, is crosslinked to its physiologically correct binding site.
# [1] = tested on: crosslinked 50S subunit-s^4TCPm complex; assay: Antibiotic inhibition of peptidyl transferase activity of the crosslinked complex (s^4TCPm-50S); format: biochemical, E. coli; conditions: antibiotics 0.1 mM (neomycin 0.01 mM, puromycin 1 mM); CACCA-(N-Ac-Phe) 0.3 μM, 4 minutes
# Description: Kinetic analysis of crosslinked ribosomal complex: Crosslinked 50S subunits were separated from 30S subunits, gene 32 mRNA, and deacylated tRNA^Phe on 5%-20% sucrose gradients in 10 mM Tris-Cl, pH 7.5, 30 mM NH4Cl, and 1 mM MgCl2, and spun in an SW41 rotor at 19,000 rpm for 16 hours. Excess sucrose was removed and the buffer exchanged to 20 mM Tris, pH 7.5, 100 mM NH4Cl, and 5 mM MgCl2 using Centricon 100 tubes spun at 2600 rpm in an SS34 rotor. Peptidyl transferase assays were done as follows: crosslinked 50S subunit complexes (0.5 μM) were incubated in standard fragment reaction conditions (50 mM Tris, pH 8.3, 0.4 M potassium acetate (KOAc), 60 mM MgCl2, and 33% MeOH) with CACCA-(N-Ac-Phe) (2 μM). Aliquots were removed from the reaction at the indicated times, rRNAs phenol extracted, digested with RNase T1, and the fragments resolved on 24% polyacrylamide/6 M urea gels. […] Antibiotic inhibition of PT activity was performed with the fragment P-site substrate, CACCA-(N-Ac-Phe), supplied at a concentration of 0.3 μM; a single linear time point of 4 minutes was used for analysis.
# [2] = tested on: peptidyl transferase A site of the 50S subunit; assay: Kinetic characterization of A-site substrates in the peptidyl transferase fragment reaction; format: biochemical; conditions: fragment reaction conditions, P-site substrate N-Ac-Met-ACCACC
# Description: Synthesis of 4-thio-dT-p-C-p-puromycin 5′-Dimethoxytrityl-Nα-trifluoroacetyl-puromycin was attached to alkylamine-derivatized controlled pore glass via a 2′-succinate linkage by standard methods. See, Atkinson and Smith, Solid Phase Synthesis of Oligodeoxyribonucleotides by the Phosphate-triester Method, in Oligonucleotide Synthesis: A Practical Approach, Oxford: IRL Press, pp. 35-81, 1985. 4-Thio-dT-p-C-p-Puromycin (s^4TCPm) was prepared by standard phosphoramidite chemistry using the solid-phase version of puromycin, and rC and 4-thio-dT phosphoramidites (Glen Research Corporation, Sterling, Va.). Deprotection was performed by treatment with 3:1 NH4OH:MeOH/50 mM NaSH overnight at 55° C. Subsequently, 40 equivalents of 1 M tetrabutylammonium fluoride (TBAF) in tetrahydrofuran (THF) were added to the dried product and incubated overnight at room temperature. Finally, 20 mM triethylamine-acetate (pH. 7.0) was added to the reaction mixture, loaded directly on a C18 HPLC column, and eluted with increasing concentrations of acetonitrile (CH3CN). Multiple peaks were collected and the purity of the products was analyzed on a 20% polyacrylamide/7M urea gel following 5′-[^32P]-end-labelling using polynucleotide kinase. Although two peaks appeared to be relatively pure by this analysis, only the slowest migrating peak on the HPLC had any crosslinking ability. Kinetic characterization of s^4TCPm was performed using the tRNA fragment N-Ac-Met-ACCACC, as a P-site substrate, using fragment reaction conditions, and paper electrophoresis analysis of the resulting product, s^4TCPm-N-Ac-Met, as described by Green and Noller, RNA, 1996, 2:1011-1021. This analysis was complicated by the apparent affinity of the compound for both the A and P sites at high concentrations. The P-site affinity may be attributable to wobble pairing between 4-thio-dT (which mimics C74 of tRNA) and G2252 of 23S rRNA. See, Samaha et al., Nature 1995, 377:309-314. […]
# [3] = tested on: 23S rRNA of E. coli tight-couple 70S ribosomes; assay: UV crosslinking of s^4TCPm to ribosomes; format: binding
# Description: (§2) Crosslinking of ribosomes by s^4TCPm: Tight-couple E. coli 70S ribosomes (2 μM) were incubated with 1.2 equivalents (2.4 μM) of gene 32 mRNA and of deacylated CF23 tRNA^Phe in 20 mM Tris, pH 7.5, 30 mM MgCl2, 50 mM NH4Cl, 6 mM 2-mercaptoethanol, and 10% MeOH. Saturating s^4TCPm (20 μM) (or [^32P]-s^4TCPm) was then added and the mixture was incubated at 37° C. for 10 minutes. Crosslinking of s^4TCPm to B. stearothermophilus 70S ribosomes was performed under similar conditions except with 30 mM Tris pH 7.5, 10 mM MgCl2, and 330 mM KCl. Complexes were exposed for varying lengths of time to a hand-held UV light source (UVL-56, Blak-Ray Lamp, UVP, Inc.—366 nm) at a distance of 3 cm. […] Analysis of the amount of substrate crosslinked to the r-proteins was determined as described by Breitmeyer and Noller, J. Mol. Biol., 1976, 101:297-306.
# Crosslinking to the peptidyl transferase A site: To target binding of the crosslinking reagent specifically to the peptidyl transferase A site, the P site of E. coli tight-couple 70S ribosomes, programed with a shortened version of bacteriophage T4 gene 32 mRNA, was filled with deacylated tRNA^Phe, followed by binding of radioactively labeled [^32P]-s^4TCPm (FIG. 3B). […] Total RNA was prepared from the UV-irradiated ribosomal complexes by phenol extraction and analyzed on a 3.8% denaturing polyacrylamide gel. […]
# [4] = tested on: B. stearothermophilus 70S ribosomes 23S rRNA; assay: UV crosslinking of s^4TCPm to B. stearothermophilus ribosomes; format: binding; conditions: compared with E. coli ribosomes
# Description: as §2, with “cm. Intact rRNAs were phenol extracted, and resolved on 3.8% polyacrylamide/7 M urea gels.” for “cm.”
# The position of the crosslinked A-site substrate was first localized with a series of RNase H digestions to the region between positions 2538 and 2593 of 23S rRNA. Assignment of the site of crosslinking to position G2553 was achieved using primer extension analysis. Because of the impaired ability of reverse transcriptase to read modified bases on the rRNA template, a major cDNA product was obtained terminating one nucleotide 3′ to the modified base. […]
# E. coli 50S subunit = assay: Peptidyl transferase reactivity of the crosslinked complex; format: biochemical; conditions: CACCA-(N-Ac-Phe), fragment reaction conditions
# Description: as §1, with “Antibiotic inhibition of crosslinking was performed using limiting [^32P]-s^4TCPm and a single time point (2 minutes) of exposure to various lengths of time (0, 5, 10, 20, or 40 minutes) to long-wave length (366 nm) UV light (in the linear range of the reaction) under standard conditions.” left out, “Antibiotic inhibition of PT activity was performed with the fragment P-site substrate, CACCA-(N-Ac-Phe), supplied at a concentration of 0.3 μM; a single linear time point of 4 minutes was used for analysis.” left out
# [5] = tested on: B. stearothermophilus 50S; assay: Peptidyl transferase reactivity of the crosslinked B. stearothermophilus complex; format: biochemical; conditions: minimal P-site substrates
# Description: as §1, with “Antibiotic inhibition of crosslinking was performed using limiting [^32P]-s^4TCPm and a single time point (2 minutes) of exposure to various lengths of time (0, 5, 10, 20, or 40 minutes) to long-wave length (366 nm) UV light (in the linear range of the reaction) under standard conditions.” left out, “Antibiotic inhibition of PT activity was performed with the fragment P-site substrate, CACCA-(N-Ac-Phe), supplied at a concentration of 0.3 μM; a single linear time point of 4 minutes was used for analysis.” left out
Compound,inhibition of crosslinking of s^4TCPm to the 2555 loop of 23S rRNA (23S rRNA (2555 loop)),inhibition of peptidyl transferase reactivity of the crosslinked complex [1],Km [2] [µM],also measured
CSC[S@+]([O-])C[C@H](CO)NC(=O)/C=C/c1c(C)[nH]c(=O)[nH]c1=O [sparsomycin],strongly inhibited,no inhibitory effect,,
CC[C@H]1OC(=O)[C@H](C)[C@@H](O[C@H]2C[C@@](C)(OC)[C@@H](O)[C@H](C)O2)[C@H](C)[C@@H](O[C@@H]2O[C@H](C)C[C@H](N(C)C)[C@H]2O)[C@](C)(O)C[C@@H](C)C(=O)[C@H](C)[C@@H](O)[C@]1(C)O [erythromycin],no effect,,,
"COc1ccc(CC(N)C(=O)NC2C(COP(=O)(O)OC3C(CO)OC(n4ccc(N)nc4=O)C3O)OC(n3cnc4c(N(C)C)ncnc43)C2O)cc1 (stereo not shown) [CPm, C-p-Puromycin]",,,~10,
O=C(N[C@H](CO)[C@H](O)c1ccc([N+](=O)[O-])cc1)C(Cl)Cl [chloramphenicol],specifically inhibited,effectively inhibited,,
CO[C@@H]1[C@@H](O[C@@H]2O[C@H](C)[C@@H](O[C@H]3C[C@@](C)(O)[C@@H](OC(=O)CC(C)C)[C@H](C)O3)[C@H](N(C)C)[C@H]2O)[C@@H](CC=O)C[C@@H](C)C(=O)/C=C/[C@@H]2O[C@@H]2C[C@@H](C)OC(=O)C[C@H]1OC(C)=O [carbomycin],specifically inhibited,effectively inhibited,,
COc1ccc(C[C@H](N)C(=O)N[C@H]2[C@@H](O)[C@H](n3cnc4c(N(C)C)ncnc43)O[C@@H]2CO)cc1 [puromycin],specifically inhibited,no effect,~400,
neomycin,no effect,,,
4-thio-dT-p-C-p-Puromycin [s^4TCPm],,,~10,crosslinking to ribosomal proteins [3]: absence of significant crosslinking; UV irradiation time at which the crosslinking reaction was complete ([3]; 366 nm UV): 10 min; crosslinking efficiency with B. stearothermophilus ribosomes [4]: similarly efficient; crosslinked population reacted with P-site substrate (E. coli 50S subunit; 2 minutes): approximately 50%; crosslinked population reacted with P-site substrate (E. coli 50S subunit; 12 minutes): 85%; peptidyl transferase kinetics slower than E. coli complex [5]: ca. 10 fold

# Reference: US6358713B1, “In vitro ribosome evolution” (Johns Hopkins University, priority 1999, dated 2002)
